This is an account of results in the supplement of paper PMC11208160.
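Further: IS621 bridge recombinase in Escherichia coli cells against a fixed T5 target plasmid.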

A short description of this series: recombinant UMI read abundance after kanamycin selection (control-corrected) (log10(CPM+1)); higher = more efficient recombination; extreme values may be limits of the assay; sequences stand for … in AGTGCAGAGAAAATCGGCCAGTTTTCTCTGCCTGCAGTCCGCATGCCGTGGGACCCCTTGGGTTCTAACCTGTTGCCTAGATTTATGCAGCGGACTGCCTTTCTCCCAAAGTGATAAACCGG…AGGTTGGTTTCACT; site = the 11-nt donor. In outline:
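For the IS621 bridge recombinase, a pooled Escherichia coli screen tested donor and donor-binding-loop pairs. Cells received the pair library together with a target plasmid encoding a fixed target and T7-inducible recombinase, then went onto IPTG (0.07 mM) plus kanamycin or unselected plates in duplicate. After PCR across the donor–target junction and sequencing, recombinant UMI counts were normalized to CPM, averaged, and scaled by control-derived factors. Each value is given as log10(CPM+1).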
As for “GTTCCAACATGGACCGGTTTTCCCGGTAATCCGTATTTGTA (site GTTCCAACTTA)”, the “recombinant UMI read abundance (log10)” value was determined as 0.437.
In the case of “GTTCCTACATGGACCGGTTTTCCCGGTAATCCGTATTTGCT (site GTTCCTACTAG)”, the “recombinant UMI read abundance (log10)” value worked out at 0.774.
As to “GTTCGAACATGGACCGGTTTTCCCGGTAATCCGTATTTGGC (site GTTAGAACTGC)”, the “recombinant UMI read abundance (log10)” value worked out at 0.
The same measure for “GTTCGAACATGGACCGGTTTTCCCGGTAATCCGTATTTGGC (site GTTCGAACTGC)”: 0.869; for “GTTCGAACATGGACCGGTTTTCCCGGTAATCCGTATTTGGC (site GTTGGAACTGC)”: 0; for “GTTCGAACATGGACCGGTTTTCCCGGTAATCCGTATTTGGC (site GTTTGAACTGC)”: 0.
Next, “GTTCGACCATGGACCGGTTTTCCCGGTAATCCGTATTTGTG (site GTTCGACCTCA)”: 0.0309.
Next, “GTTCGAGCATGGACCGGTTTTCCCGGTAATCCGTATTTGCA (site ATTCGAGCTTG)”: 1.31; “GTTCGAGCATGGACCGGTTTTCCCGGTAATCCGTATTTGCA (site CTTCGAGCTTG)”: 0.898; “GTTCGAGCATGGACCGGTTTTCCCGGTAATCCGTATTTGCA (site GATCGAGCTTG)”: 0.258.
Take “GTTCGAGCATGGACCGGTTTTCCCGGTAATCCGTATTTGCA (site GCTCGAGCTTG)”: the “recombinant UMI read abundance (log10)” value was 1.25.
The same measure for “GTTCGAGCATGGACCGGTTTTCCCGGTAATCCGTATTTGCA (site GGTCGAGCTTG)”: 0.00484.
The same measure for “GTTCGAGCATGGACCGGTTTTCCCGGTAATCCGTATTTGCA (site GTACGAGCTTG)”: 1.97; for “GTTCGAGCATGGACCGGTTTTCCCGGTAATCCGTATTTGCA (site GTCCGAGCTTG)”: 1.29.
The same measure for “GTTCGAGCATGGACCGGTTTTCCCGGTAATCCGTATTTGCA (site GTGCGAGCTTG)”: 0.215.
With “GTTCGAGCATGGACCGGTTTTCCCGGTAATCCGTATTTGCA (site GTTAGAGCTTG)”, the “recombinant UMI read abundance (log10)” value is 0.651.
The same measure for “GTTCGAGCATGGACCGGTTTTCCCGGTAATCCGTATTTGCA (site GTTCAAGCTTG)”: 1.8.
The same measure for “GTTCGAGCATGGACCGGTTTTCCCGGTAATCCGTATTTGCA (site GTTCCAGCTTG)”: 0.541; for “GTTCGAGCATGGACCGGTTTTCCCGGTAATCCGTATTTGCA (site GTTCGAACTTG)”: 0.806.
For the sequence “GTTCGAGCATGGACCGGTTTTCCCGGTAATCCGTATTTGCA (site GTTCGACCTTG)”, the “recombinant UMI read abundance (log10)” value was found to be 0.0101.
The same measure for “GTTCGAGCATGGACCGGTTTTCCCGGTAATCCGTATTTGCA (site GTTCGAGCTAG)”: 0; for “GTTCGAGCATGGACCGGTTTTCCCGGTAATCCGTATTTGCA (site GTTCGAGCTCG)”: 0.461; for “GTTCGAGCATGGACCGGTTTTCCCGGTAATCCGTATTTGCA (site GTTCGAGCTGG)”: 0.789.
Turning to “GTTCGAGCATGGACCGGTTTTCCCGGTAATCCGTATTTGCA (site GTTCGAGCTTA)”, the “recombinant UMI read abundance (log10)” value was 1.19.
Next, “GTTCGAGCATGGACCGGTTTTCCCGGTAATCCGTATTTGCA (site GTTCGAGCTTC)”: 0.0558.
Next, “GTTCGAGCATGGACCGGTTTTCCCGGTAATCCGTATTTGCA (site GTTCGAGCTTG)”: 2.44.
For the sequence “GTTCGAGCATGGACCGGTTTTCCCGGTAATCCGTATTTGCA (site GTTCGAGCTTT)”, the “recombinant UMI read abundance (log10)” value came to 0.391.
As for “GTTCGAGCATGGACCGGTTTTCCCGGTAATCCGTATTTGCA (site GTTCGATCTTG)”, the “recombinant UMI read abundance (log10)” value is 1.09.
As to “GTTCGAGCATGGACCGGTTTTCCCGGTAATCCGTATTTGCA (site GTTCGCGCTTG)”, the “recombinant UMI read abundance (log10)” value was 0.00631.
Next, “GTTCGAGCATGGACCGGTTTTCCCGGTAATCCGTATTTGCA (site GTTCGGGCTTG)”: 1; “GTTCGAGCATGGACCGGTTTTCCCGGTAATCCGTATTTGCA (site GTTCGTGCTTG)”: 0.477; “GTTCGAGCATGGACCGGTTTTCCCGGTAATCCGTATTTGCA (site GTTCTAGCTTG)”: 0.494.
The same measure for “GTTCGAGCATGGACCGGTTTTCCCGGTAATCCGTATTTGCA (site GTTGGAGCTTG)”: 0.345.
Next, “GTTCGAGCATGGACCGGTTTTCCCGGTAATCCGTATTTGCA (site GTTTGAGCTTG)”: 0.607; “GTTCGAGCATGGACCGGTTTTCCCGGTAATCCGTATTTGCA (site TTTCGAGCTTG)”: 0.829; “GTTCGAGCATGGACCGGTTTTCCCGGTAATCCGTATTTGCC (site GTTCGAGCTAG)”: 0.379.
On to “GTTCGAGCATGGACCGGTTTTCCCGGTAATCCGTATTTGCC (site GTTCGAGCTCG)”, for which the “recombinant UMI read abundance (log10)” value was found to be 0.00775.
Next, “GTTCGAGCATGGACCGGTTTTCCCGGTAATCCGTATTTGCC (site GTTCGAGCTGG)”: 1.42.
Next, “GTTCGAGCATGGACCGGTTTTCCCGGTAATCCGTATTTGCC (site GTTCGAGCTTG)”: 0.317.
Next, “GTTCGAGCATGGACCGGTTTTCCCGGTAATCCGTATTTGGG (site GTTCGAGCTCC)”: 0.00765.
In the case of “GTTCGGCCATGGACCGGTTTTCCCGGTAATCCGTATTTGGT (site GTTCGGCCTAC)”, the “recombinant UMI read abundance (log10)” value is 0.00718.
The same measure for “GTTCTATCATGGACCGGTTTTCCCGGTAATCCGTATTTGTG (site GTTCTATCTCA)”: 1.02; for “GTTCTCACATGGACCGGTTTTCCCGGTAATCCGTATTTGGT (site GTTCTCACTAC)”: 0.234.
“GTTGCGGCATGGACCGGTTTTCCCGGTAATCCGTATTTGCT (site ATTGCGGCTAG)”: the “recombinant UMI read abundance (log10)” value was found to be 1.03.
Turning to “GTTGCGGCATGGACCGGTTTTCCCGGTAATCCGTATTTGCT (site CTTGCGGCTAG)”, the “recombinant UMI read abundance (log10)” value worked out at 0.745.
Next, “GTTGCGGCATGGACCGGTTTTCCCGGTAATCCGTATTTGCT (site GTTGCGGCTAG)”: 1.49; “GTTGCGGCATGGACCGGTTTTCCCGGTAATCCGTATTTGCT (site TTTGCGGCTAG)”: 0.731; “GTTGGAACATGGACCGGTTTTCCCGGTAATCCGTATTTGCC (site GTTGGAACTGG)”: 2.34.
Take “GTTGGAACATGGACCGGTTTTCCCGGTAATCCGTATTTGTT (site GTTGGAACTAA)”: the “recombinant UMI read abundance (log10)” value is 2.
Next, “GTTGGTACATGGACCGGTTTTCCCGGTAATCCGTATTTGAC (site GTAGGTACTGT)”: 1.9; “GTTGGTACATGGACCGGTTTTCCCGGTAATCCGTATTTGAC (site GTCGGTACTGT)”: 2.31.
The same measure for “GTTGGTACATGGACCGGTTTTCCCGGTAATCCGTATTTGAC (site GTGGGTACTGT)”: 0; for “GTTGGTACATGGACCGGTTTTCCCGGTAATCCGTATTTGAC (site GTTGGTACTGT)”: 2.36; for “GTTGTTACATGGACCGGTTTTCCCGGTAATCCGTATTTGCA (site GTTGTTACTTG)”: 2.25.
The same measure for “GTTGTTGCATGGACCGGTTTTCCCGGTAATCCGTATTTGGT (site GTTGTTACTAC)”: 0.375; for “GTTGTTGCATGGACCGGTTTTCCCGGTAATCCGTATTTGGT (site GTTGTTCCTAC)”: 0.00209.
Turning to “GTTGTTGCATGGACCGGTTTTCCCGGTAATCCGTATTTGGT (site GTTGTTGCTAC)”, the “recombinant UMI read abundance (log10)” value worked out at 1.83.
Next, “GTTGTTGCATGGACCGGTTTTCCCGGTAATCCGTATTTGGT (site GTTGTTTCTAC)”: 0; “GTTTAAGCATGGACCGGTTTTCCCGGTAATCCGTATTTGAC (site GTTTAAGCTGT)”: 2.24; “GTTTAGGCATGGACCGGTTTTCCCGGTAATCCGTATTTGCA (site GTTTAGGCTTG)”: 2.03.
The same measure for “GTTTAGTCATGGACCGGTTTTCCCGGTAATCCGTATTTGAT (site GTTTAGTCTAT)”: 1.59.
The same measure for “GTTTCGACATGGACCGGTTTTCCCGGTAATCCGTATTTGTC (site GTTTCGACTGA)”: 0.157; for “GTTTGAGCATGGACCGGTTTTCCCGGTAATCCGTATTTGCA (site GTTAGAGCTTG)”: 1.32; for “GTTTGAGCATGGACCGGTTTTCCCGGTAATCCGTATTTGCA (site GTTCGAGCTTG)”: 1.89.
With “GTTTGAGCATGGACCGGTTTTCCCGGTAATCCGTATTTGCA (site GTTGGAGCTTG)”, the “recombinant UMI read abundance (log10)” value stood at 1.55.
Consider “GTTTGAGCATGGACCGGTTTTCCCGGTAATCCGTATTTGCA (site GTTTGAGCTTG)”, for which the “recombinant UMI read abundance (log10)” value worked out at 2.07.
Next, “GTTTGCACATGGACCGGTTTTCCCGGTAATCCGTATTTGTA (site GTATGCACTTA)”: 0.00807; “GTTTGCACATGGACCGGTTTTCCCGGTAATCCGTATTTGTA (site GTCTGCACTTA)”: 0.253.
